Test results: patent US12612627B2, “Compositions and methods for increasing sodium current in cardiac cells” (REGENTS OF THE UNIVERSITY OF MINNESOTA, priority 2020, dated 2026)

Assays:
[1] = tested on: miR-448; assay: miR-448 level by qPCR in RL14 human cardiomyocytes; type: cell-based; details: for increase of miR-448 by deferoxamine: then deferoxamine six hours; for miR-448 expression: RL14 cells stimulated with hypoxia-mimetic chemical for 24 hours, normalized with RNU6
Experimental: Human fetal cardiomyocyte cell line RL14 (ATCC RL-14, ATCC, Manassas, VA) cells were grown in DMEM/F-12 nutrient mixture (GE Healthcare Life Sciences, Logan, UT) supplemented with 12.5% (v/v) fetal bovine serum (Gibco, Grand Island, NY) and penicillin-streptomycin (10,000 U/mL; Gibco, Grand Island, NY). HEK293T cells were maintained in DMEM high glucose supplemented with 10% fetal bovine serum and penicillin-streptomycin. hiPSC-cardiomyocytes (iCELL Cardiomyocytes) were obtained from Cellular Dynamics International (Madison, WI). iCELL cardiomyocytes were seeded and maintained using iCELL Cardiomyocyte Plating Medium and Maintenance Medium (FUJIFILM Cellular Dynamics, Inc., Madison, WI). For hypoxic conditions, the cells were cultured in an hypoxic incubator chamber (STEMCELL Technologies, Vancouver, BC) using pre-incubated culture media or were treated with hypoxic-mimetic chemicals, deferoxamine (DFX) and cobalt chloride (CoCl2) (Sigma-Aldrich, St. Louis, MO) as previously described (Chachami et al., 2004, Am J Respir Cell Mol Biol 31:544-551; Woo et al, 2006, Biochem Biophys Res Commun 343:8-14).
Syn-hsa-miR-448 miScript miRNA mimic, anti-hsa-miR-448 miScript miRNA inhibitor, and its negative controls were purchased from Qiagen (Valencia, CA). REST siRNA and its negative control were obtained from Integrated DNA Technologies (Coralville, IA). The cells were transfected using HiPerFect Transfection Reagent (Qiagen, Valencia, CA) following the recommendations of the manufacturer. Plasmid DNA was transfected into cultured cells using SuperFect transfection reagent (Qiagen, Valencia, CA) following the manufacturer's protocol.
Total RNA was prepared using RNeasy Plus Mini Kit or miRNeasy Mini Kit (Qiagen, Valencia, CA) according to the manufacturer's instructions. Reverse transcription was performed with a First Strand cDNA Synthesis kit (Promega, Madison, WI). cDNA for miRNA detection was generated by the miScript II RT Kit (Qiagen, Valencia, CA). A reverse transcription quantitative real-time PCR was performed with SYBR Green PCR Master Mix (Thermo Fisher Scientific, Waltham, MA) using the 7500Fast Real-Time PCR system (Thermo Fisher Scientific, Waltham, MA) and miScript SYBR Green PCR Kit with miScript primer assays to detect the expression of miRNA. The primer sequences were as follows:
Hs_miR-448_1 miScript Primer Assay (5′-[…]-3′; (SEQ ID NO:1; Qiagen, Valencia, CA) was used for detecting miR-448, and the Hs_RNU6-2_11 miScript Primer Assay (Qiagen, Valencia, CA) was used as an endogenous control. The relative fold change was calculated by the 2^−ΔΔCt method, and the measurements were normalized with respect to the endogenous control (RNU6, GAPDH).

[2] = tested on: Nav1.5; assay: Nav1.5 protein level by Western blotting in RL14 human cardiomyocytes; type: cell-based; details: cardiomyocytes treated for 24 hours
Experimental: Human fetal cardiomyocyte cell line RL14 (ATCC RL-14, ATCC, Manassas, VA) cells were grown in DMEM/F-12 nutrient mixture (GE Healthcare Life Sciences, Logan, UT) supplemented with 12.5% (v/v) fetal bovine serum (Gibco, Grand Island, NY) and penicillin-streptomycin (10,000 U/mL; Gibco, Grand Island, NY). HEK293T cells were maintained in DMEM high glucose supplemented with 10% fetal bovine serum and penicillin-streptomycin. hiPSC-cardiomyocytes (iCELL Cardiomyocytes) were obtained from Cellular Dynamics International (Madison, WI). iCELL cardiomyocytes were seeded and maintained using iCELL Cardiomyocyte Plating Medium and Maintenance Medium (FUJIFILM Cellular Dynamics, Inc., Madison, WI). […]
Cells were washed twice with ice-cold PBS and disrupted in Cell Lysis Buffer (Cell Signaling Technology, Danvers, MA) with Protease and Phosphatase Inhibitor Cocktail (Thermo Fisher Scientific, Waltham, MA) on ice for 30 minutes. […] The total protein concentration was quantified using the BCA Protein Assay Kit (Pierce, Thermo Fisher Scientific, Waltham, MA). […]
After TBST washing, the membrane was incubated with horseradish peroxidase (HRP)-conjugated secondary antibody (1:5000) for 90 min at room temperature. […] The images were analyzed using ImageJ software to measure band density. […]

Question: With `Cc1ccc(S(=O)(=O)/C=C/C#N)cc1` [Bay11-7028] as the compound, how does the “increase of miR-448 by deferoxamine” value ([1]; 0.5 μM or 2 μM for 30 minutes) read?
Answer: inhibited

Question: With `O=S(=O)(NCCSSCCNS(=O)(=O)c1cc(Cl)ccc1Cl)c1cc(Cl)ccc1Cl` [KC7F2] as the compound, how does the “increase of miR-448 by deferoxamine” value ([1]; 5 μM or 20 μM for 30 minutes) read?
Answer: inhibited

Question: `C=CCONC(=O)c1ccc2nc(-c3ccccc3O)[nH]c2c1` [X5050] was tested. Which Nav1.5 protein level [2] did it give?
Answer: decreased

Question: How did the miR-448 expression [1] turn out when `[Cl][Co][Cl]` [cobalt chloride] was run?
Answer: increased

Question: For `COC(=O)CNC(=O)C(=O)OC` [dimethyloxallyl glycine], which miR-448 expression [1] is on record?
Answer: increased
